Results published in US20110263454A1, “Methods of Identifying Functional Characteristics of Promoters, Transcription Modifying Proteins and Transcription Modulating Agents” (Salk Institute for Biological Studies, priority 2008, published 2011).

Columns and labels:
[1] = system: FGF1A mRNA in white adipose tissue (WAT); test: FGF1A mRNA in white adipose tissue after PPARγ ligand treatment; type: in vivo; details: fed mice, oral 5 mg/kg for 3 days
Experimental: To test this hypothesis the expression of FGF1A in response to feeding, fasting and PPARγ ligand treatment was determined (FIG. 47, left panel).

[2] = system: TRAP expression; details: human peripheral mononuclear cells; Reddy 1996; cited from earlier work
[3] = system: pre-adipocytes; details: treatment of pre-adipocytes; Hutley 2004, Newell 2006; cited from earlier work

Molecule: CN(CCOc1ccc(CC2SC(=O)NC2=O)cc1)c1ccccn1 (stereo not drawn) [BRL, BRL49653 (Rosiglitazone)]
- mRNA levels of FGF1A [1]: significantly increased

Molecule: ferric protoporphyrin IX [hemin]
- TRAP expression at the transcriptional level [2]: inhibited

Molecule: recombinant FGF1: recombinant FGF1, fibroblast growth factor polypeptide
- effect on pre-adipocytes [3]: increased proliferation and adipogenesis
